US4039663A, “Daunomycins, process for their uses and intermediates” (Societa' Farmaceutici Italia S.p.A., priority 1975, dated 1977)
≈ marks a conversion by molar mass, not a printed value. Like-named read-outs stand apart in the source and are kept apart here.

Experiments:
[1] = Cell proliferation in cultured mice fibroblasts infected with Moloney Sarcoma Virus; format: cell-based, mouse; details: mouse, embryo fibroblasts; 3 days treatment; read-out: Cell Proliferation ID50 (B)
Procedure: (§1) The test compounds were evaluated on mouse embryo fibroblast cultures infected with MSV. After a treatment of three days, the inhibiting doses (ID50) were evaluated on cell proliferation and on MSV foci formation.
(§2) Effect of compounds (VI and (VII) on foci formation and on cell proliferation in cultured mice fibroblasts infected with Moloney Sarcoma Virus. (3 days treatment)

[2] = tested on: HeLa cells; experiment: Proliferative activity (colony counts) of cultured HeLa cells at different exposure times; format: cell-based; details: Homo sapiens; for IC50: read-out: ID50 (50% inhibition of colonies); for activity at 0.25 µg/mL: 0.25 μg/ml; for activity at 0.5 µg/mL: 0.5 μg/ml; for activity at 1 µg/mL: 1 μg/ml; for activity at 0.025 µg/mL: 0.025 μg/ml; for activity at 0.05 µg/mL: 0.05 μg/ml; for activity at 0.1 µg/mL: 0.1 μg/ml
From the text: (§3) Tests in vitro on the effect of compounds (VI) and (VII) on the micotic index and the proliferative activity of cultured HeLa cells at different exposure times. The results in Table 4 are expressed as a percent of the untreated controls. The ID50 represents the dose which gives a 50% inhibition of colonies.

[3] = tested on: Moloney Sarcoma Virus; experiment: Foci formation by Moloney Sarcoma Virus in mouse embryo fibroblast cultures; format: cell-based; details: for IC50 / activity at 0.0062 µg/mL / activity at 0.025 µg/mL / activity at 0.1 µg/mL / activity at 0.4 µg/mL: Fibroblast, 72 h, 3 days treatment; for IC50: read-out: Foci Formation ID50 (A); for B/A: ratio ID50 cell proliferation (B) / ID50 foci formation (A), 4320 min; for activity at 0.0062 µg/mL: 0.0062 μg/ml; for activity at 0.0062 µg/mL / activity at 0.025 µg/mL / activity at 0.1 µg/mL / activity at 0.4 µg/mL: read-out: Foci Formation (% of controls); for activity at 0.025 µg/mL: 0.025 μg/ml; for activity at 0.1 µg/mL: 0.1 μg/ml; for activity at 0.4 µg/mL: 0.4 μg/ml
Procedure: as §1, §2

[4] = tested on: TR[…] LEUKEMIA; experiment: Transplanted Gross leukemia in mice; format: in vivo, Inbred C3 H female mice; details: first to fifth day, control = 100
From the text: Inbred C3 H female mice were intravenously inoculated with a suspension of leukemia lymphonodes and spleen cells (2.5 × 10^6 leukemia cells/mouse) and treated, intravenously, from the first to the fifth day after inoculation with the compounds under examination.

[5] = tested on: mouse embryo fibroblast cultures infected with MSV; experiment: Cell proliferation in cultured mice fibroblasts infected with Moloney Sarcoma Virus; format: cell-based; details: Mus musculus, Fibroblast, 72 h, 3 days treatment, read-out: Cell Proliferation (% of controls); for activity at 0.0062 µg/mL: 0.0062 μg/ml; for activity at 0.025 µg/mL: 0.025 μg/ml; for activity at 0.1 µg/mL: 0.1 μg/ml; for activity at 0.4 µg/mL: 0.4 μg/ml
Procedure: as §1, §2

[6] = tested on: a number of experimental tumors; experiment: Antitumor activity on experimental tumors in mice (summary); format: in vivo; details: mean survival time, non-toxic doses
Procedure: (§4) The antitumor activity of the novel antibiotic compounds of the invention, i.e., 4'-epi-daunomycin (VI) and 4'-epidaunomycin, β-anomer, (VII) was evaluated on several transplanted tumors in mice, and in in vitro tests, in comparison with the known antitumor agent daunomycin (IV).

[7] = tested on: oncogenic viruses; experiment: Cell transformation induced by oncogenic viruses (summary); format: cell-based
Procedure: as §4

[8] = tested on: ASCITES SARCOMA 180; experiment: Action on ascites sarcoma 180 in mice; format: in vivo, mice (Swiss CD 1); details: for Average Survival Time (%): 1 day after inoculation, untreated = 100%
Procedure: The tests were carried out on groups of 10 female mice (Swiss CD 1). The compounds under examination were administered intraperitoneally in varying doses to the test animals 1 day after intraperitoneal inoculation with 1 × 10^6 tumor cells per animal. The average survival time is given in Table 1 as a percentage of the survival time of untreated animals, which is arbitrarily designated as 100%. Also given in Table 1 are the number of long term survivors.

[9] = tested on: cultured cells; experiment: Inhibition of cell mitosis and proliferation in cultured cells (summary); format: cell-based; details: cultured cells in vitro
Procedure: as §4

[10] = tested on: HeLa cells; experiment: Micotic index of cultured HeLa cells at different exposure times; format: cell-based; details: Homo sapiens; for activity at 0.25 µg/mL: 0.25 μg/ml; for activity at 0.5 µg/mL: 0.5 μg/ml; for activity at 1 µg/mL: 1 μg/ml; for activity at 0.025 µg/mL: 0.025 μg/ml; for activity at 0.05 µg/mL: 0.05 μg/ml; for activity at 0.1 µg/mL: 0.1 μg/ml
From the text: as §3

[11] = tested on: single myocardial cells isolated from the hearts of newborn mice
Procedure: The cardiotoxic activity of compound (VI) was evaluated in vitro on single myocardial cells isolated by trypsinization from the hearts of newborn mice (Necco A., Dasdia T. IRCS, 2: 1293, 1974). After 3-4 days, the cell cultures, showing clusters of beating cells, are studied both as to frequency and rhythym.

[12] = 2h, value marked * Metaphasic block

COc1cccc2c1C(=O)c1c(O)c3c(c(O)c1C2=O)C[C@@](O)(C(C)=O)C[C@@H]3O[C@H]1C[C@H](N)[C@H](O)[C@H](C)O1 [IV, 7-O-(3'-amino-2',3',6'-trideoxy-α-L-lyxohexopyranosyl)-daunomycin-one, reference compound]
CC50 at 72 h [1]: 0.0086 µg/mL (≈ 0.0163 µM)
IC50 ([2]; 2h exposure): 0.098 µg/mL (≈ 0.186 µM)
IC50 ([2]; 8h exposure): 0.036 µg/mL (≈ 0.0682 µM)
IC50 ([2]; 24h exposure): 0.021 µg/mL (≈ 0.0398 µM)
IC50 [3]: 0.006 µg/mL (≈ 0.0114 µM)
B/A [3]: 1.4

COc1cccc2c1C(=O)c1c(O)c3c(c(O)c1C2=O)C[C@@](O)(C(C)=O)C[C@@H]3O[C@@H]1C[C@H](N)[C@@H](O)[C@H](C)O1 [VII, 7-O-(3'-amino-2',3',6'-trideoxy-β-L-arabinohexopyranosyl)-daunomycinone]
Average Survival Time (%) ([4]; 1.5 mg/kg daily i.v.): 106%
Average Survival Time (%) ([4]; 2.25 mg/kg daily i.v.): 102%
Average Survival Time (%) ([4]; 3 mg/kg daily i.v.): 121%
CC50 at 72 h [1]: 0.064 µg/mL (≈ 0.121 µM)
activity at 0.0062 µg/mL [5]: 87%
activity at 0.025 µg/mL [5]: 80%
activity at 0.1 µg/mL [5]: 28%
activity at 0.4 µg/mL [5]: 14%
antitumor activity in mice [6]: increase in the mean survival time at non-toxic doses
activity on cell transformation induced by oncogenic viruses [7]: substantial activity on cell transformation induced by oncogenic viruses
Long Term Survivors after 60 days ([8]; 0.26 mg/kg i.p.): 0/10
Average Survival Time (%) ([8]; 0.26 mg/kg i.p.): 96.6%
Long Term Survivors after 60 days ([8]; 1.3 mg/kg i.p.): 1/10
Average Survival Time (%) ([8]; 1.3 mg/kg i.p.): 114.8%
Long Term Survivors after 60 days ([8]; 6.7 mg/kg i.p.): 1/10
Average Survival Time (%) ([8]; 6.7 mg/kg i.p.): 118.6%
activity at 0.25 µg/mL ([2]; 2h): 108%
activity at 0.25 µg/mL ([2]; 8h): 86%
activity at 0.25 µg/mL ([2]; 24h): 70%
activity at 0.5 µg/mL ([2]; 2h): 101%
activity at 0.5 µg/mL ([2]; 8h): 37%
activity at 0.5 µg/mL ([2]; 24h): 18%
activity at 1 µg/mL ([2]; 2h): 98%
activity at 1 µg/mL ([2]; 8h): 17%
activity at 1 µg/mL ([2]; 24h): 6%
IC50 ([2]; 2h exposure): > 1 µg/mL
IC50 ([2]; 8h exposure): 0.47 µg/mL (≈ 0.891 µM)
IC50 ([2]; 24h exposure): 0.33 µg/mL (≈ 0.626 µM)
inhibition of cell mitosis and proliferative activity [9]: powerful inhibitors of cell mitosis and proliferative activity in cultured cells in vitro
activity at 0.25 µg/mL ([10]; 2h): 137%
activity at 0.25 µg/mL ([10]; 4h): 103%
activity at 0.25 µg/mL ([10]; 8h): 85%
activity at 0.5 µg/mL ([10]; 2h): 95%
activity at 0.5 µg/mL ([10]; 4h): 67%
activity at 0.5 µg/mL ([10]; 8h): 88%
activity at 1 µg/mL ([10]; 2h): 52%
activity at 1 µg/mL ([10]; 4h): 40%
activity at 1 µg/mL ([10]; 8h): 0%
activity at 0.0062 µg/mL [3]: 48%
activity at 0.025 µg/mL [3]: 44%
activity at 0.1 µg/mL [3]: 5%
activity at 0.4 µg/mL [3]: 0%
IC50 [3]: 0.01 µg/mL (≈ 0.019 µM)
B/A [3]: 6.4

COc1cccc2c1C(=O)c1c(O)c3c(c(O)c1C2=O)C[C@@](O)(C(C)=O)C[C@@H]3O[C@H]1C[C@H](N)[C@@H](O)[C@H](C)O1 [VI, 7-0-(3'-amino-2',3',6'-trideoxy-α-L-arabinohexopyranosyl)-daunomycinone]
Average Survival Time (%) ([4]; 1.5 mg/kg daily i.v.): 115%
Average Survival Time (%) ([4]; 2.25 mg/kg daily i.v.): 143%
Average Survival Time (%) ([4]; 3 mg/kg daily i.v.): 162%
Average Survival Time (%) ([4]; 3.75 mg/kg daily i.v.): 122%
Average Survival Time (%) ([4]; 4.5 mg/kg daily i.v.): 120%
cardiotoxic activity [11]: lower than that of daunomycin (IV)
CC50 at 72 h [1]: 0.013 µg/mL (≈ 0.0246 µM)
activity at 0.0062 µg/mL [5]: 75%
activity at 0.025 µg/mL [5]: 23%
activity at 0.1 µg/mL [5]: 14%
activity at 0.4 µg/mL [5]: 1%
antitumor activity in mice [6]: increase in the mean survival time at non-toxic doses
activity on cell transformation induced by oncogenic viruses [7]: substantial activity on cell transformation induced by oncogenic viruses
Long Term Survivors after 60 days ([8]; 0.22 mg/kg i.p.): 1/10
Average Survival Time (%) ([8]; 0.22 mg/kg i.p.): 111.1%
Long Term Survivors after 60 days ([8]; 1.1 mg/kg i.p.): 1/10
Average Survival Time (%) ([8]; 1.1 mg/kg i.p.): 120.8%
Long Term Survivors after 60 days ([8]; 5.7 mg/kg i.p.): 0/10
Average Survival Time (%) ([8]; 5.7 mg/kg i.p.): 174.5%
activity at 0.025 µg/mL ([2]; 2h): 113%
activity at 0.025 µg/mL ([2]; 8h): 88%
activity at 0.025 µg/mL ([2]; 24h): 48%
activity at 0.05 µg/mL ([2]; 2h): 115%
activity at 0.05 µg/mL ([2]; 8h): 56%
activity at 0.05 µg/mL ([2]; 24h): 23%
activity at 0.1 µg/mL ([2]; 2h): 77%
activity at 0.1 µg/mL ([2]; 8h): 23%
activity at 0.1 µg/mL ([2]; 24h): 3%
IC50 ([2]; 2h exposure): 0.16 µg/mL (≈ 0.303 µM)
IC50 ([2]; 8h exposure): 0.056 µg/mL (≈ 0.106 µM)
IC50 ([2]; 24h exposure): 0.027 µg/mL (≈ 0.0512 µM)
inhibition of cell mitosis and proliferative activity [9]: powerful inhibitors of cell mitosis and proliferative activity in cultured cells in vitro
activity at 0.025 µg/mL [10, 12]: 226%
activity at 0.025 µg/mL ([10]; 4h): 100%
activity at 0.025 µg/mL ([10]; 8h): 117%
activity at 0.05 µg/mL [10, 12]: 189%
activity at 0.05 µg/mL ([10]; 4h): 103%
activity at 0.05 µg/mL ([10]; 8h): 122%
activity at 0.1 µg/mL ([10]; 2h): 79%
activity at 0.1 µg/mL ([10]; 4h): 140%
activity at 0.1 µg/mL ([10]; 8h): 0%
activity at 0.0062 µg/mL [3]: 51%
activity at 0.025 µg/mL [3]: 0%
activity at 0.1 µg/mL [3]: 0%
activity at 0.4 µg/mL [3]: 0%
IC50 [3]: 0.006 µg/mL (≈ 0.0114 µM)
B/A [3]: 2.1
